# According to patent US20240398767A1, “INHIBITORS OF THE MTDH-SND1 PROTEIN COMPLEX FOR CANCER THERAPY” (The Trustees of Princeton University, priority 2021, published 2024):
# Columns and labels:
# SCP28 xenograft tumor = SCP28 xenograft tumor model in NSG mice; format: in vivo; details: 8 weeks treatment
# Procedure: FIG. 13A, NGS female mice injected with 2 k SCP28 cells orthotopically were subjected to vehicle or C26-A6 treatment after two weeks. Primary tumor volumes were measured.
# FIG. 13B, 8 weeks after treatment, tumor mass was assessed. Vehicle, n=10 mice; C26-A6, n=10 mice. Size bar, 2 cm.
# FIG. 13C, 8 weeks after treatment, lung metastasis was assessed. Vehicle, n=10 mice; C26-A6, n=10 mice. Size bar, 5 mm.
# 4TO7 lung metastases = test: Established 4TO7 lung macrometastases; format: in vivo, Balb/C females
# Procedure: For FIGS. 7A-7D, 2 k 4TO7 cells were injected into Balb/C females. 2 weeks after the injections, the mice were randomized based on lung metastasis that indicated by BLI, and were divided into four groups followed by vehicle, paclitaxel (Pac), and C26-A6 treatment alone or in combination. For Pac, the mice were treated with 20 mg/kg of Pac twice per week for the first two week and then once per week after that, For C26-A6, the mice were treated with 15 mg/kg of C26-A6 5 days per week. n=6 mice per group. Data represent mean±SEM.
# FIG. 7A, Representative mice right before the treatment (week 2) and at week 10 are shown.
# FIG. 7B, The BLI signal was quantified at week 2. Significance determined by one-way ANOVA analysis with Dunnett's test for multiple comparisons.
# FIG. 7C, The metastasis progression of each individual is shown.
# FIG. 7D, Survival rate in each group was analyzed. Significance determined by two-sided Log-rank test.
# Lastly, to mimic the clinical scenario of adjuvant chemotherapy following surgical removal of the primary tumors, SCP28 mammary tumors were removed when they reached 5 mm in diameter, the mice were then randomly separated into four groups and subjected to the different treatment regimens as above. […] The mice were then treated with vehicle or paclitaxel and C26-A6 alone or in combination, and the metastasis progression was monitored by BLL.
# [1] = test system: Py8119-OVA cells co-cultured with OT-I splenocytes; test: Py8119-OVA tumor cell / OT-I splenocyte co-culture; format: cell-based, mouse; details: 200 μM
# Procedure: FIG. 22C, Py8119-OVA cells co-cultured with OT-I splenocytes were treated with 200 μM of C26-A6 or same amount of vehicle. The binding between MTDH and Tap1/2 in tumor cells were determined by RIP assay.
# FIG. 22D, Tap1/2 RNAs that bind to MTDH in (c) were quantified and normalized to the pulled down MTDH levels.
# FIG. 22E, Tap1/2 levels in Py8119-OVA cells with/without 200 μM of C26-A6 treatment during co-culture were examined by qRT-PCR.
# FIG. 22F, OVA (H-2K^b-SIINFEKL) presentation in Py8119-OVA cells with/without 200 μM of C26-A6 treatment in co-culture were determined by flow cytometry. MFI, Mean Fluorescence Intensity; AU, arbitrary units.
# FIG. 22G, Media in (E) was collected for IFN-γ ELISA and cytotoxicity assay. AU, arbitrary units.
# FIG. 32B, Py8119-OVA cells co-cultured with OT-I splenocytes were treated with 200 μM of C26-A6 or same amount of vehicle. The binding between SND1 and Tap1/2 in tumor cells were determined by RIP assay.
# FIG. 32C, Tap1/2 RNAs that bind to SND1 were quantified and normalized to the pulled down SND1 levels.
# FIG. 32D, MHC-I presentation in Py8119-OVA cells with/without 200 μM of C26-A6 treatment in co-culture were determined by flow cytometry. MFI, mean fluorescence intensity; AU, arbitrary units.
# FIGS. 32E, The expression of CD137 in splenocytes co-cultured with Py8119-OVA was determined by flow cytometry upon 200 μM of C26-A6 or vehicle treatment.
# FIGS. 32F, The expression of IFN-γ in splenocytes co-cultured with Py8119-OVA were determined by flow cytometry upon 200 μM of C26-A6 or vehicle treatment.
# Immune cell and tumor cell co-culture assay. Py8119-OVA tumor cells with various MTDH expression status were plated in 6-well plates for in vitro co-culture in DMEM/F12 media listed above. Once cells reached 50-75% confluency OT-I splenocytes or CD8^+ T cells were added to the tumor cells at the 1:10 ratio (tumor cell. immune cell). After 24 hr of co-culture, the cells and culture media were collected for further experiments.
# RNA-Binding immunoprecipitation (RIP) and western blot (WB). Py8119-OVA tumor cells after co-culture for 24 hr were collected for RIP using RNA-Binding Protein Immunoprecipitation Kit (Millipore, #17-700). Briefly, 5×10^7 tumor cells were resuspended with 200 μL of RIP lysis buffer and frozen at −80° C. for at least 1 hr to lyse the cells. The sample was then centrifuged at 14,000 rpm for 10 min at 4° C. 20 μL of supernatant was transferred to two new tubes with 10 μL each and frozen at −80° C. to serve as input of total. The rest of the supernatant was diluted with 1.8 ml of RIP immunoprecipitation buffer and split equally into two 1.5 ml EP tubes. 5 μg of MTDH (Invitrogen, catalogue #40-6500), SND1 (Santa Cruz, catalogue #sc-271590) or IgG (provided in the Kit) antibody was added into each tube and incubated at 4° C. overnight. The next day, 50 μL of magnetic beads was added and incubated for another 2 hr. The beads were then washed with 500 μL of RIP wash buffer on a magnetic separator for 5 times. During the final wash, 25 μL of the beads in the wash buffer was transferred into a new tube, stored at −80° C. to serve as input of IP. The rest of the beads together and 10 μL input of total were resuspended with 300 μL of proteinase K buffer respectively and incubated at 55° C. for 30 min to degrade proteins. RNA was extracted with phenol:chloroform:isoamyl alcohol and precipitated with 100 μL of Salt Solution I, 30 μL of Salt Solution II, and 10 μL of Precipitation Enhancer at −80° C. overnight. […]
compound,measurement,setting,value
COc1ccc(Cl)cc1S(=O)(=O)Nc1cccn2nc(C)nc12 [Analog C26-A6],primary tumor growth and lung metastasis,SCP28 xenograft tumor,confirmed
same,metastatic growth (BLI),"4TO7 lung metastases; Pac 20 mg/kg, C26-A6 15 mg/kg 5 days per week",slowed down metastatic growth
same,metastasis shrinkage,4TO7 lung metastases; six mice per group,did not result in metastasis shrinkage
same,OVA antigen and MHC-I complex presentation (flow cytometry),[1],promotes OVA antigen and MHC-I complex presentation
same,"T cell activation (CD137, IFN-γ)",[1],promotes
same,Tap1/2 binding of MTDH and SND1 (RIP assay),[1],decreased the Tap1/2 binding of MTDH and SND1
same,Tap1/2 mRNA expression level (qRT-PCR),[1],increased the expression level of these mRNAs
same,immune clearance of tumor cells (cytotoxicity assay),[1],sensitizes the tumor cells to immune clearance
